Experiment [1] deals with T1, HMalT (His-tagged MalT) (Escherichia coli, UniProt P06993).
T1 construct: full-length, His-tagged; purified on Ni2+ resin then Superdex 200; monomeric in resting form, multimerizes with maltotriose and ATP
T1 sequence (P06993 1-901): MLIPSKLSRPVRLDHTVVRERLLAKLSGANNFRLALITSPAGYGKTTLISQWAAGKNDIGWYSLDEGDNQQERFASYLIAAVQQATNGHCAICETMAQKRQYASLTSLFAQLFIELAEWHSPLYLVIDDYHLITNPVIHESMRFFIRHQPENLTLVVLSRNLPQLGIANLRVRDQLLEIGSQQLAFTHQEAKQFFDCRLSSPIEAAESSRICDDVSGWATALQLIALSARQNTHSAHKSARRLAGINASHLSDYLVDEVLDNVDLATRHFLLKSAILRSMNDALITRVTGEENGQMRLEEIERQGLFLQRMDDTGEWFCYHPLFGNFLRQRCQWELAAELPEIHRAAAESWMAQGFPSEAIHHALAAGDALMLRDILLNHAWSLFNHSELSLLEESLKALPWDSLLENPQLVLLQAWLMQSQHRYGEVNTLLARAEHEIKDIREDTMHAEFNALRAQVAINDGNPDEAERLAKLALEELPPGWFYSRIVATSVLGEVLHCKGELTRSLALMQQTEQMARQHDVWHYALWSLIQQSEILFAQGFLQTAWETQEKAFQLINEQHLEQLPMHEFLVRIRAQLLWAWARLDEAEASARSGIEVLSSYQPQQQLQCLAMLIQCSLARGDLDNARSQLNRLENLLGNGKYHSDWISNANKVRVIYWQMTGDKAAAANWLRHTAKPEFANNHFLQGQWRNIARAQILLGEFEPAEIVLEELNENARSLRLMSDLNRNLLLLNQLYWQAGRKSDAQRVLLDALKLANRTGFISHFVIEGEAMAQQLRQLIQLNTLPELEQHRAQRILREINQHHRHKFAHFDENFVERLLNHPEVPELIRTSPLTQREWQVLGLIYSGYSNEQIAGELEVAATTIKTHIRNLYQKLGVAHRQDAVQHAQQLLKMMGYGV
As to the kind of experiment: filter-binding assay, dissociation of [α-32P]ADP complex chased by cold ADP. Particulars: labelled compound; resting form, no maltotriose; buffer B pH 8.0, 10 mM Mg acetate, 25°C; 1 mM cold ADP chase.

Experiment [2] addresses T2, HMalT (His-tagged MalT) (Escherichia coli, UniProt P06993, Q70C/E395C).
T2 construct: full-length, His-tagged; purified on Ni2+ resin then Superdex 200; monomeric in resting form, multimerizes with maltotriose and ATP
Described as above. Particulars: labelled compound; oxidized form (C70-C395 disulfide), no DTT, with or without 20 mM maltotriose; buffer B pH 8.0, 10 mM Mg acetate, 25°C; 1 mM cold ADP chase.

Experiment [3] deals with T1, HMalT (His-tagged MalT). As to the kind of experiment: limited proteinase K proteolysis protection (arm-sensor hinge), SDS-PAGE quantification, binding isotherm. As to conditions: 50 mM HEPES pH 8.0, 10.1 mM Mg acetate, 0.44 mM ATP, 25°C; no reducing agent; full saturation assumed at 50 mM; read-out: KD (apparent dissociation constant).
Experiment [4] deals with T3, HMalT^336-806 (arm-sensor polypeptide) (Escherichia coli, UniProt P06993).
T3 construct: gene malT; arm-sensor fragment, residues 336-806, His-tagged; purified on Ni2+ resin then Superdex 200
T3 sequence (P06993 336-806): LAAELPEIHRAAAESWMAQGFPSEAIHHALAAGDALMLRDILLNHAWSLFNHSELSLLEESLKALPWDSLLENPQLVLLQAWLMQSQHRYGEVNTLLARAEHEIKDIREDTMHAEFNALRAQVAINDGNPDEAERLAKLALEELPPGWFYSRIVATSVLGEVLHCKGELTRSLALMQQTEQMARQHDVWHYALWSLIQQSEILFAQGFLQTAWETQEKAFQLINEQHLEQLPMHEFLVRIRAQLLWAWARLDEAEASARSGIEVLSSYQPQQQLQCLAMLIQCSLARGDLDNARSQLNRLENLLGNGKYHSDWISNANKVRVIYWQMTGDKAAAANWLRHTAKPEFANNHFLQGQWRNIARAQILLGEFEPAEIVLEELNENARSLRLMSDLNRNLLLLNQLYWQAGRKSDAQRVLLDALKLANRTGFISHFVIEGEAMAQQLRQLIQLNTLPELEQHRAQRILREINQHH
As to the kind of experiment: intrinsic tryptophan fluorescence titration, quadratic fit. It counts as binding. Particulars: 20 mM Tris-HCl pH 8.0, 0.2 M KCl, 20°C; 1 μM protein; excitation 295 nm, emission 323 nm.

The target of experiment [5] is T2, HMalT (His-tagged MalT). As to the kind of experiment: limited proteinase K proteolysis protection (arm-sensor hinge), SDS-PAGE quantification, binding isotherm. Particulars: 50 mM HEPES pH 8.0, 10.1 mM Mg acetate, 0.44 mM ATP, 25°C; no reducing agent: oxidized form, C70-C395 disulfide locks NOD closed; full saturation assumed at 50 mM; read-out: KD (apparent dissociation constant).

T2 sequence (P06993 whole entry Q70C/E395C): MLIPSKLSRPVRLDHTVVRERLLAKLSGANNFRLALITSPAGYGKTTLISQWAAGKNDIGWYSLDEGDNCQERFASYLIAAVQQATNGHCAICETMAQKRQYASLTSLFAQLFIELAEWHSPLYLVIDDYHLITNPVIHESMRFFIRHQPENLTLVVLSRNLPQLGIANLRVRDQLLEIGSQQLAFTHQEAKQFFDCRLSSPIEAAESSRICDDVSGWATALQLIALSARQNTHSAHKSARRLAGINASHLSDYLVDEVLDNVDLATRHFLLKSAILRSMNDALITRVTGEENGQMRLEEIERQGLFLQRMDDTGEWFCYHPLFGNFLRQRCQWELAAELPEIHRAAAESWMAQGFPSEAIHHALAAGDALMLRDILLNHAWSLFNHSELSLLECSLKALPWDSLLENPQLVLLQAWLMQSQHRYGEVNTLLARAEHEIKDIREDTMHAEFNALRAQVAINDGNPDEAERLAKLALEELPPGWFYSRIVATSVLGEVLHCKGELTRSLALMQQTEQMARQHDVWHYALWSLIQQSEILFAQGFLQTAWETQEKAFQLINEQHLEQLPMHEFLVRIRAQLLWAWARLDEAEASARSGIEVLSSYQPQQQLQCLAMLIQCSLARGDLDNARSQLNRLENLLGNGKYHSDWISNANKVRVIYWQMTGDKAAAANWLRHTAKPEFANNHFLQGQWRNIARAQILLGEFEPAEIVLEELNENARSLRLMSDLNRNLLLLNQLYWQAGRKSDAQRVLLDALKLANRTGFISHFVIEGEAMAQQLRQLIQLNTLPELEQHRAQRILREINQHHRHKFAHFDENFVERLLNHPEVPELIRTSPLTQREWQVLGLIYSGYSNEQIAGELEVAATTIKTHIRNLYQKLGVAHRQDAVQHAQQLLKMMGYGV

`Nc1ncnc2c1ncn2[C@@H]1O[C@H](COP(=O)(O)OP(=O)(O)O)[C@@H](O)[C@H]1O` [ADP]: the t1/2 at HMalT (His-tagged MalT) [1] is 1.98 ± 0.183 h; at HMalT (His-tagged MalT) [2], greater than 8.33 h.
For the compound `OC[C@H]1O[C@H](O[C@H]2[C@H](O)[C@@H](O)[C@@H](O[C@H]3[C@H](O)[C@@H](O)C(O)O[C@@H]3CO)O[C@@H]2CO)[C@H](O)[C@@H](O)[C@@H]1O` (some centres unmarked) [maltotriose], the Kd at HMalT (His-tagged MalT) [3] was 131 ± 12 µM; in experiment [4] it was 2.7 ± 1.2 µM; on HMalT (His-tagged MalT) [5], 2600 ± 500 µM.

(Values after publication PMC4381067, “How ‘arm-twisting’ by the inducer triggers activation of the MalT transcription factor, a typical signal transduction ATPase with numerous domains (STAND)” (Nucleic Acids Research, 2015).)
